Assay results: PMC12828543, “Preclinical drug screen identifies WEE1 inhibitor and vinca alkaloid as a combination treatment concept for Li-Fraumeni syndrome medulloblastoma” (iScience, 2025)
Where two headings read alike, the source gives them in different places.

What was measured:
[1] = system: Trp53+/- LFS mouse model (Trp53tm1Tyj/J); settings: for Survival: Trp53+/- mice, 4-week treatment and 4-week observation period
Procedure: At the age of 6-8-weeks mice were randomly assigned into 4 treatment groups (3-4 animals/group) without blinding.
4-week treatment period was followed by 4-week observation period to monitor for drug toxicity-related symptoms. Afterwards the animals were sacrificed and organs (brain, liver, spleen and kidney) were extracted. Tissues were fixed for 48 hours in Roti®-Histofix 4 % (cat.no. P087.5, Roth) followed by dehydration in 50% Ethanol. […] For γH2AX (p-S139) staining 4 μm FFPE tissue sections were cut, deparaffinized and re-hydrated. […] Antibody- and H&E-stained specimens were evaluated by the pathologist (T.G.P.G.). Images were taken with the Leica DM3000 LED microscope (10-fold magnification) and analyzed using Fiji v.2.16.0 (Java 8) and R version 4.2.2 (packages ggplot2 and ggsignif).
At the stage of designing experiments, a power analysis was performed for BT084 and LFS_primary models using R version 4.1.0 (type I error: 5%, type II error: 20%). Survival, IVIS readout and weight was analyzed using R version 4.2.2 (packages stat, ggplot2, ggsignif, survival, survminer and stats). Images were analyzed using Fiji v.2.16.0 (Java 8) and R version 4.2.2 (packages ggplot2 and ggsignif).

[2] = system: TP53mut SHH-MB patient-derived organoid MED113FH; experiment: Drug treatment assay in PDOs (72 h, CellTiter-Glo 3D); type: cell-based, human; settings: PDO MED113FH, single drug; for IC50: Homo sapiens
Procedure: (§1) Cells were treated with DMSO as negative control and with Staurosporine (10 μM) (BIO-CONNECT BV, cat.no. 62996-74-1) as positive control. Metabolic activity was measured 72h after drug treatment by adding 40 μL of CellTiter-Glo 3D cell viability assay (Promega, cat.no. G9683) to each well, shake for 5 minutes using the Multidrop Combi system dispenser and incubated at room temperature and in the dark for an additional 25 minutes. Thereafter, bioluminescence was measured using the CLARIOstarplus (BMG Labtech) plate reader. Results were normalized to DMSO negative controls (100% viability) and Staurosporine positive controls (0% viability).
(§2) In analysis of the results from PDO lines Synergy finder+ was used and growth curves were generated using R version 4.2.2 (package drc). Presented synergy scores are averages across 3 biological replicates (each with two technical replicates, from which a mean value was calculated).

[3] = system: TP53mut SHH-MB patient-derived organoid B062-008; experiment: as above; type: cell-based, human; settings: PDO B062-008, single drug; for IC50: Homo sapiens
Procedure: as §1, §2

[4] = system: TP53mut SHH-MB patient-derived organoid B062-13315; experiment: as above; type: cell-based, human; settings: PDO B062-13315, single drug; for IC50: Homo sapiens
Procedure: as §1, §2

[5] = system: LFS fibroblasts; experiment: Genotoxicity screen, Micronucleus Test (MNT); type: cell-based, human; parameters: key: MNT score = number of micronuclei / number of nuclei; settings: Cmax concentration (or concentration causing 20% decrease of viability), 120 h, median
Procedure: To evaluate genotoxicity of compounds, the Micronucleus Test (MNT)[96]^,[97] method was used. […] Next, the cells were visualized using ImageXpress Micro 4 High-Content Imaging System (Molecular Devices, LLC) and 4 images for each well were analyzed with CellProfiler version 4.1.3 (the pipeline described in the supplementary information).
The MNT score for a specific compound was calculated according to a following formula: MNTscore=(numberofmicronuclei/numberofnuclei)
Resulting MNT scores were compared to negative (DMSO) and positive (mitomycin C) control scores using Welch t-test (R version 4.2.2, packages stat, ggplot2). If scores were statistically different from positive control, then the compound was classified as non-genotoxic. If scores were statistically different from negative control, then the compound was classified as genotoxic.

[6] = system: SJGBM-2 and UW228-2; experiment: Validation in established cell lines, Emax criterion in both cancer cell lines; type: cell-based; settings: Homo sapiens; SJGBM-2 and UW228-2, selection criterion; read-out: maximum effect (Emax) in cancer cell lines
Description: (§3) DSS3 (single drug screen and validation steps) and Emax (validation step only) were estimated based on four-parameter logistic curves.

[7] = system: CDK1 phosphorylation (phospho Y15) in SJ-GBM2 and UW228-2; experiment: Adavosertib pharmacodynamic marker (Western blot) in cell lines; type: cell-based, human; settings: adavosertib 100 nM, 300 nM for 8 and 24 hours
Description: Protein concentration of cell lysates were estimated using the Pierce BCA Protein Assay Kit (cat. no. 23225, ThermoFisher Scientific). For detecting CDK1 phosphorylation the following antibodies were used: α-CDK1 (phospho Y15) [BLR101H] (cat.no. ab275958, Abcam), α-Cdk1/Cdk2 (AN21.2) (cat.no. sc-53219, Santa Cruz Biotechnology, Inc.), α-HSP90 (cat.no. 4877, Cell Signaling Technology). Western blot bands were visualized using Amersham ECL Prime Western Blotting Detection System (cat. no. RPN2232SK, GE Healthcare) and quantified using ImageJ (version 1.50b, Wayne Rasband and co., NIH). Post analysis brightness and contrast of presented images was increased by 50%.

[8] = system: UW228-2; experiment: Validation in established cell lines (0.1-10,000 nM, triplicates, 72 h, CellTiter-Glo 2.0); type: cell-based, human; settings: for Emax: UW228-2, validation, maximum effect, 0.1-10,000 nM, 72 h; for IC50: UW228-2, metabolic activity
Procedure: (§4) Following 72-hour exposure cell viability was measured using CellTiter-Glo 2.0 Assay (cat.no. G9241, Promega) and the Spark microplate reader (Tecan).
as §3

[9] = system: SJ-GBM2; experiment: as above; type: cell-based, human; settings: for IC50: SJ-GBM2, metabolic activity; for Emax: validation, maximum effect, 0.1-10,000 nM, 72 h
Procedure: as §4, §3

[10] = system: TP53mut SHH-MB patient-derived organoids (PDOs); experiment: Drug treatment assay in PDOs, summary over all three PDO models; type: cell-based; settings: Homo sapiens
Procedure: as §1, §2

[11] = system: DKFZ-BT084 PDX (LFS-associated SHH-MB), orthotopic in NSG mice; experiment: In vivo drug testing in LFS SHH-MB PDX model; parameters: species or system mouse; settings: adavosertib 60 mg/kg p.o. 5 times/week, vincristine 0.5 mg/kg i.p. once weekly, 4 weeks
Procedure: Animal experiment permits (G-193/21 and G-135/23) were issued by the Regional Council in Karlsruhe. In in vivo drug treatment and in vivo target dependence experiments female NOD.Cg-Prkdc^scidIl2rg^tm1Wjl/SzJ (NSG) mice were used. Intracranial patient-derived xenograft (PDX) tumor cell injections were performed in 6-8-week old animals. Following LFS-associated SHH-MB PDX models were injected: DKFZ-BT084[86] (relapsed tumor), LFS_primary[78] (gift from Prof. Aurélie Ernst, treatment-naive) and HS231222 (newly-established model, treatment-naive). After tumor detection mice were randomly assigned into 4 treatment groups (4-5 animals/group) without blinding.
LFS_primary[78] (gift from Aurélie Ernst) and HS231222. […] The control group received treatment with solvents only.

[12] = system: LFS fibroblasts; experiment: Validation in established cell lines (0.1-10,000 nM, triplicates, 72 h, CellTiter-Glo 2.0); type: cell-based; settings: non-cancerous cells
Procedure: as §4, §3

[13] = parameters: method as in PMID 35507041; settings: mice; cited from earlier work
[14] = system: TP53mut cancer cell lines SJ-GBM2 and UW228-2; experiment: Drug combination screen (synergy scores, SynergyFinder+); type: cell-based, human; settings: TP53mut brain cancer cell lines
Procedure: Drugs were tested in combinations in vitro using TP53^mut cancer cell lines SJ-GBM2 and UW228-2. […] Cell metabolic activity was measured in the same way as in the single drug screen (3 technical replicates x min. 3 biological replicates for each condition).
as §2

[15] = system: orthotopic GBM model; settings: cited from earlier work
[16] = system: UW228-2; experiment: WEE1 siRNA knockdown and vincristine, cell viability after 72 hours; type: cell-based; settings: Homo sapiens; UW228-2, 72 hours, vincristine 0.5 nM, compared to control siRNA
Procedure: (§5) SJ-GBM2 and UW228-2 cells were transfected with ON-TARGETplus Human WEE1 siRNA (SMARTPool, cat.no. L-005050-00, Dharmacon Reagents) using Lipofectamine RNAiMAX Transfection Reagent (cat. no. 13778075, Invitrogen). WEE1 knockdown at protein level was confirmed by Western blot (α-WEE1 antibody [B-11], cat.no. sc-5285, Santa Cruz Biotechnology). After 72 hours cell viability was measured as described in Single drug screening method section. Caspase assay was performed 48 hours after treatment according to manufacturer instructions (cat.no. ab39383, Abcam).
(§6) Western blot bands were quantified using ImageJ (version 1.50b, Wayne Rasband and co., NIH). The readouts from 3 biological replicates were analyzed using R version 4.2.2 (packages ggplot2, DSS, stats) and presented as mean values with standard deviations.

[17] = system: SJ-GBM2; experiment: as above; type: cell-based; settings: Homo sapiens; SJ-GBM2, 72 hours, vincristine 0.5 nM, compared to control siRNA
Procedure: as §5, §6

[18] = system: caspase-3 activity in SJ-GBM2 and UW228-2; experiment: Caspase-3 assay (fluorometric) 48 hours after treatment; type: cell-based, human; settings: SJ-GBM2 and UW228-2, 48 hours
Procedure: as §5

[19] = Cmax from literature; ref PMID: 32635465; cited from earlier work
[20] = mean over three PDOs, metabolic activity, read-out: mean IC50
[21] = range over three PDOs, read-out: IC50 range

Row | SMILES | Survival [1] | IC50 [2] | DSS [2] | IC50 [3] | DSS [3] | IC50 [4] | DSS [4] | MNT_median (micronucleus test score) [5] | Emax [6] | Emax ([8]; Homo sapiens) | IC50 ([8]; Homo sapiens) | IC50 ([9]; Homo sapiens) | Emax ([9]; Homo sapiens) | IC50 [10, 20] | IC50 [10, 21] | Median lifespan since tumor detection [11] | interaction in combination with vinca alkaloid (synergy score) [14] | IC50 [8] | IC50 [9] | other results
1 | C=CCn1c(=O)c2cnc(Nc3ccc(N4CCN(C)CC4)cc3)nc2n1-c1cccc(C(C)(C)O)n1 [Adavosertib] | 100% | 167 nM | 9,53 | 215 nM | 8,36 | 117 nM | 17,70 | 1,44 | > 50% | 89.1% | 273 nM | 43.4 nM | 98.1% | 166 nM | 117 to 215 nM | 9 days |  |  |  | levels of CDK1 phosphorylation [7]: reduced levels of CDK1 phosphorylation
2 | C[C@@H]1COCCN1c1cc(-c2ccnn2C)c2ccnc(-c3ccn[nH]3)c2n1 [BAY-1895344] |  |  |  |  |  |  |  |  |  |  |  |  |  |  |  |  |  |  |  | LFS fibroblast DSS3 [12]: 0; intra-tumoral drug concentration [13]: 495 nM
3 | Cc1cc(Nc2ncc3c(n2)N(C)CN(c2c(Cl)cccc2Cl)C3=O)ccc1C1CCN(C)CC1 [Debio 0123] |  |  |  |  |  |  |  |  |  |  |  |  |  |  |  |  | additive interaction | 270 nM | 147 nM | BBB penetration [15]: ability to cross BBB
4 | CC[C@]1(O)C[C@H]2CN(CCc3c([nH]c4ccccc34)[C@@](C(=O)OC)(c3cc4c(cc3OC)N(C=O)[C@H]3[C@@](O)(C(=O)OC)[C@H](OC(C)=O)[C@]5(CC)C=CCN6CC[C@]43[C@@H]65)C2)C1 [Vincristine] | 100% | 11.9 nM | 16,96 | 7.24 nM | 22,69 | 1.38 nM | 54,34 | 2,59 | > 50% | 52.2% | 0.9 nM | 1.1 nM | 92.5% | 6.8 nM | 1.38 to 11.9 nM | 20.5 days |  |  |  | genotoxicity or organ-specific toxicities ([1]; mouse, in vivo): low to no genotoxicity or organ-specific toxicities; viability at 0.0005 µM [16]: 80.2%; viability at 0.0005 µM [17]: 62.9%; caspase-3 activity [18]: did not influence caspase-3 activity; Cmax [19]: 36 nM
5 | C=CCn1c(=O)c2cnc(Nc3ccc(N4CCN(C)CC4)cc3)nc2n1-c1ccc2c(n1)[C@@](O)(CC)CC2 [ZN-c3] |  |  |  |  |  |  |  |  |  |  |  |  |  |  |  |  | additive interaction | 271 nM | 69.7 nM | 
